Measurements as given in US20240108740A1, “THERAPEUTIC COMPOSITIONS INCLUDING SPN10 AND USES THEREOF” (Stealth BioTherapeutics Inc., priority 2022, published 2024).
Residues, ends and D or L forms follow the SMILES beside them.

Tests used:
[1] = system: Sprague-Dawley rats; assay: Example 5: unilateral ureteral obstruction (UUO), 14 days; type: in vivo, rat
Method: UUO will be induced in Sprague-Dawley rats. The rats will be treated with saline (i.p., n=6), peptide conjugates (1 mg/kg i.p., n=6), aromatic-cationic peptides (e.g., an equivalent molar dose of aromatic-cationic peptide based on the concentration of the aromatic-cationic peptide administered in the peptide conjugate treatment group), SPN10(s) (e.g., an equivalent molar dose of SPN10 based on the concentration of SPN10 administered in the peptide conjugate treatment group), or SPN10(s) in combination with aromatic-cationic peptides (e.g., an equivalent molar dose of SPN10 based on the concentration of SPN10 administered in the peptide conjugate treatment group and an equivalent molar dose of aromatic-cationic peptide based on the concentration of aromatic-cationic peptide administered in the peptide conjugate treatment group) one day prior to induction of UUO, and once daily for 14 days after UUO induction. Rats will be sacrificed and the kidneys removed, embedded in paraffin, and sectioned. The sections will be treated with an anti-CD36 polyclonal IgG (Santa Cruz, sc-9154; diluted 1:100 with blocking serum) at room temperature for 1.5 hours. The slides will then be incubated with the second antibody conjugated with biotin (anti-rabbit IgG-B1; ABC kit, PK-6101) at room temperature for 30 min. The slides will then be treated with avidin, developed with DAB and counterstained with 10% hematoxylin. The contralateral unobstructed kidney will serve as the control for each animal.
Rats will then be sacrificed, kidneys removed, embedded in paraffin and sectioned. Slides will be incubated with anti-HNE rabbit IgG and a biotin-linked anti-rabbit IgG will be used as secondary antibody. The slides will be developed with DAB. Lipid peroxidation, which is increased by UUO, is anticipated to be reduced by treatment with peptide conjugates, aromatic-cationic peptides, or SPN10(s) (with or without aromatic-cationic peptides).
Rats will then be sacrificed, kidneys removed, embedded in paraffin and sectioned. To quantify nuclei with fragmented DNA, TUNEL assay will be performed with in situ TUNEL kit. Slides will be developed with DAB and counterstained with 10% hematoxylin. […] It is anticipated that there will be a significant increase in apoptotic cells observed in the obstructed kidney from saline-treated animals when compared to the contralateral unobstructed control.
Macrophage infiltration and interstitial fibrosis are anticipated to be prevented by treatment with peptide conjugates, aromatic-cationic peptides, or SPN10(s) (alone or in combination with aromatic-cationic peptides). Rats will be treated with either saline (n=6), peptide conjugates (1 mg/kg i.p., n=6), aromatic-cationic peptides (e.g., an equivalent molar dose of aromatic-cationic peptide based on the concentration of the aromatic-cationic peptide administered in the peptide conjugate treatment group), SPN10(s) (e.g., an equivalent molar dose of SPN10 based on the concentration of SPN10 administered in the peptide conjugate treatment group) or SPN10(s) in combination with aromatic-cationic peptides (e.g., an equivalent molar dose of SPN10 based on the concentration of SPN10 administered in the peptide conjugate treatment group and an equivalent molar dose of aromatic-cationic peptide based on the concentration of aromatic-cationic peptide administered in the peptide conjugate treatment group) one day prior to induction of UUO, and once daily for 14 days after UUO. Rats will then be sacrificed, the kidneys removed, embedded in paraffin and sectioned. Slides will be treated with monoclonal antibody for ED1 macrophage (1:75; Serotec). Horseradish peroxidase-linked rabbit anti-mouse secondary antibody (Dako) will be used for macrophage detection. Sections will then be counterstained with 10% hematoxylin. […]

[2] = system: murine burn injury model; assay: Example 48: skeletal muscle redox state after burn injury (nitroxide EPR); type: in vivo, mouse; conditions: 6-hour time point; i.p. 30 minutes before and immediately after burn
Method: The redox state of the gastrocnemius muscle immediately below a local cutaneous burn (90° C. for 3 sec) will be evaluated by nitroxide EPR. It is anticipated that the redox state in the muscle will be compromised by burn injury, with the most dramatic effect at 6 hours post-burn.
Peptide conjugates (3 mg/kg), aromatic-cationic peptides (an equivalent molar dose of aromatic-cationic peptide based on the concentration of the aromatic-cationic peptide administered in the peptide conjugate treatment group), SPN10(s) (an equivalent molar dose of SPN10 based on the concentration of SPN10 administered in the peptide conjugate treatment group) or SPN10(s) in combination with aromatic-cationic peptides (e.g., an equivalent molar dose of SPN10 based on the concentration of SPN10 administered in the peptide conjugate treatment group and an equivalent molar dose of aromatic-cationic peptide based on the concentration of aromatic-cationic peptide administered in the peptide conjugate treatment group) will be administered i.p. 30 minutes before burn, and immediately after burn.

[3] = system: renal ischemia-reperfusion (IR) injury in rats; assay: Mitochondrial respiration and ATP synthesis after renal ischemia-reperfusion injury; type: in vivo, rat; conditions: 45 minutes renal artery occlusion, 20 minutes or 1 hour reperfusion
Method: Animals will be subjected to bilateral occlusion of renal artery for 45 minutes followed by 20 minutes or 1 hour of reperfusion. Subjects will receive saline vehicle, a peptide conjugate (2.0 mg/kg s.c.), an aromatic-cationic peptide (an equivalent molar dose of aromatic-cationic peptide based on concentration of the aromatic-cationic peptide administered in the peptide conjugate group) SPN10 (an equivalent molar dose of SPN10 based on concentration of SPN10 administered in the peptide conjugate group), or SPN10(s) in combination with aromatic-cationic peptides (e.g., an equivalent molar dose of SPN10 based on the concentration of SPN10 administered in the peptide conjugate treatment group and an equivalent molar dose of aromatic-cationic peptide based on the concentration of aromatic-cationic peptide administered in the peptide conjugate treatment group) 30 minutes before ischemia and again at the time of reperfusion (n=4-5 in each group). It is anticipated that the peptide conjugate, aromatic-cationic peptide or SPN10(s) (with or without aromatic-cationic peptides) will improve oxygen consumption and ATP synthesis.

SMILES: N=C(N)NCCC[C@H](NC(=O)[C@@H](N)Cc1c[nH]c2ccccc12)C(=O)N[C@@H](Cc1c[nH]c2ccccc12)C(=O)N[C@@H](CCCCN)C(N)=O [SPN10, H-L-Trp-L-Arg-L-Trp-L-Lys-NH2] (H-WRWK-NH2)
- CD36 expression in tubular cells after UUO ([1]; anti-CD36 immunostaining): significant reduction in CD36 expression
- HNE staining in obstructed kidney ([1]; compared to saline-treated rats): significantly less HNE staining
- tubular dilation after UUO ([1]; one day prior to UUO and once daily for 14 days): Tubular dilation is also anticipated
- interstitial fibrosis in obstructed kidney (Masson's trichrome) ([1]; rat, in vivo): significantly less fibrosis
- lipid peroxidation in kidney after UUO ([1]; rat, in vivo): reduced
- macrophage infiltration in obstructed kidney (ED1) ([1]; rat, in vivo): significantly reduced
- number of apoptotic cells in obstructed kidney (TUNEL) ([1]; rat, in vivo): significantly reduced
- up-regulation of CD36 associated with tubular cell apoptosis ([1]; rat, in vivo): significantly inhibited
- rate of nitroxide reduction in muscle beneath the burn [2]: significantly increase the rate of nitroxide reduction
- oxygen consumption and ATP synthesis [3]: improve
